This experiment deals with antigen receptor-induced NF-kappaB activation reporter, cells. Briefly: inhibitors of antigen receptor-triggered NF-kB signaling, dose response, cell-based (AID 586).

SMILES strings stand for the structures. Activity calls are given as the source filed them. How the calls were made is not given here.

Consider `CCn1c2ccccc2c2cc(Nc3cc(C)nc4ncnn34)ccc21`, for which the IC50 is 1.45 µM.
Turning to `COC(=O)C1=C(CN2CCCc3ccccc32)NC(=O)NC1c1ccc(F)cc1` (centres undefined), the IC50 was 0.7 µM.
In the case of `O=C(CSc1nnnn1C1CC2CCC1C2)Nc1ccnc2ccccc12` (centres undefined), the IC50 is > 30 µM (inactive).
In the case of `COc1cc(CC(NC(C)=O)C(=O)NC2CCN(c3nc(C)cc(C)c3C#N)CC2)cc(OC)c1` (centres undefined), the IC50 is 1.64 µM.
As for `Cc1ccc(-c2cc3c(nn2)-c2ccccc2C3=O)cc1`, the figure is 3.29 µM.
As for `Cc1nn(Cc2c(Cl)cccc2Cl)c(C)c1NC(=O)c1cc(C(C)C)on1`, the IC50 is > 9.97 µM (inactive).
On to `Cc1cccc(N2CCN(C(=O)c3ccc(CS(=O)(=O)c4ccccc4C)o3)CC2C)c1` (centres undefined), for which the IC50 is 7.04 µM.
In the case of `O=c1c2ccccc2cnn1-c1nc2ccccc2s1`, the IC50 was 3.3 µM.
For `Clc1ccc(COn2nnc3ccccc32)c(Cl)c1`, the IC50 is > 30 µM (inactive).
In the case of `COc1ccc(-n2ncc3c(N4CCCCC4)ncnc32)cc1` it was 2.66 µM.
On to `CCOc1ccc(-c2cc(C(=O)O)c3ccccc3n2)c(OCC)c1`, for which the IC50 was 4.6 µM.
As for `COC(=O)c1[nH]c2c(c1C)C(=O)CC(c1ccccc1)C2` (centres undefined), the figure is 13.2 µM (inactive); as for `CCNc1ccc(C(=O)OCC)cc1NC(=O)c1cccc(N(C)C)c1`, > 30 µM (inactive).
For the molecule `Cc1cccc(C)c1-n1nnnc1SCSc1nnnn1-c1c(C)cccc1C`, the IC50 was 3.41 µM.
On to `CCN1C(=O)c2cccc3c(S(=O)(=O)Nc4ccccn4)ccc1c23`, for which the IC50 was 2.94 µM.
As for `Cc1ccc(C(=O)NCCn2cc(SCC(=O)Nc3cc(C)on3)c3ccccc32)cc1`, the figure is 5.46 µM.
In the case of `COc1ccc(-c2noc(CCCC(=O)O)n2)cc1` it was > 30 µM (inactive).
Take `CC(=O)c1ccc(-c2nc3c4ccccc4ccn3c2C(C)=O)o1`: the IC50 was 0.73 µM.
Turning to `O=C(Nc1ccc(N2CCOCC2)cc1)c1cnsn1`, the IC50 is 4.22 µM.
As to `CC1=CC(C)(C)Nc2ccc(OC(=O)c3cccnc3)cc21`, the IC50 is > 9.97 µM (inactive).
For `COc1ccc2cc(C(=O)NCc3ccco3)c(=Nc3ccc(C(=O)O)cc3)oc2c1`, the IC50 was 20.9 µM (inactive).
For the molecule `CCOc1ccccc1NC(=O)c1cccc(NC(=O)c2ccco2)c1`, the IC50 was > 30 µM (inactive).
`O=C(Cc1cccs1)Nc1nc2c(s1)CCCC2`: the IC50 is 2.65 µM.
On to `Cc1nn(-c2ccccc2)c(Cl)c1C1C(C#N)=C(N)Oc2n[nH]c(C)c21` (centres undefined), for which the IC50 is 1.86 µM.
In the case of `CCOc1ccc(OCc2cccc(C(=O)O)c2)cc1`, the IC50 was 0.192 µM.
Consider `CCN(c1ccccc1)S(=O)(=O)c1ccc(Oc2ccc(-n3ccnc3)cc2)nc1`, for which the half-inhibitory concentration (IC50) is 0.738 µM.
As to `COc1cc(NC(=O)c2cccc3c2C(=O)N(Cc2cccnc2)C3)cc(OC)c1OC`, the IC50 was 1.18 µM.
`COc1cc(OC)cc(-c2cc3nc(C)c(CCC(=O)O)c(C)n3n2)c1`: the IC50 was 1.54 µM.
As for `N#Cc1c(NC(=O)CSc2ncn[nH]2)sc2c1CCCCC2`, the IC50 was 6.57 µM.
In the case of `O=C(O)c1cccc(COc2ccccc2Cl)c1` it was 0.615 µM; in that of `Cc1ccc(Nc2cc(C)nn2-c2nc(C)cc(=O)[nH]2)cc1`, 10.6 µM (inactive); in that of `C=C(C)COc1ccc(-c2[nH]ncc2-c2ccc(OC)c(OC)c2)c(O)c1`, 8.25 µM.
As to `O=C(NC1c2ccccc2-c2ccccc21)N1CCCCC1`, the IC50 is > 30 µM (inactive).
Turning to `COc1cccc2c(C)c(C(=O)O)[nH]c12`, the IC50 was 4.84 µM.
As for `Cn1cc(/C=N/n2cnc3scc(-c4ccc(Cl)cc4)c3c2=O)c2ccccc21`, the figure is > 30 µM (inactive); as for `Cn1c(=O)n(C)c2cc(C(=O)Nc3ccc4c(c3)OCO4)ccc21`, 2.25 µM.
Turning to `CC1=CC(C)(C)Nc2ccc(OC(=O)CN3C(=O)CCC3=O)cc21`, the 50% inhibitory concentration (IC50) is 6.84 µM.
Take `CCCOc1c(OC)cccc1C1CC(=O)Nc2cc(OC)c(OC)c(OC)c21` (centres undefined): the IC50 was > 30 µM (inactive).
In the case of `COc1ccc2c(c1)sc1nc(-c3ccccc3)cn12` it was 1.87 µM.

(Values after PubChem BioAssay AID586 (The Scripps Research Institute Molecular Screening Center, 2007).)
